Results as given in patent US20140377340A1, “HLA-DR BINDING PEPTIDES AND THEIR USES” (priority 2007, published 2014).

Columns and labels:
purified HLA DRB1*0901 = target: T1, purified HLA DRB1*0901 (Homo sapiens, UniProt P01903+P01911, A100R/A103E/D57H/D86V/F55Y/F60I/F76Y/I96F/K127E/L162R/M171V/P40D/Q125H/Q99R/R33Q/R42F/S133A/S66N/T210M/V115G/W38K/Y107V/Y59G/Y89S); assay: HLA-DR radioligand binding inhibition assay, DRB1*0901; details: read-out: IC50 nM purified HLA DRB1 *0901; purified HLA DRB1*0901
T1 construct: purified from EBV transformed homozygous cell lines or single MHC allele transfected 721.221, C1R, or fibroblast lines; made in house
Method: Instead, wells of an opaque white 96-well Optiplate (Packard) are coated with 3 μg (100 μl@ 30 μg/ml) of HLA-specific antibody (Ab) that “capture” complexes of radiolabeled MHC and unlabeled peptide transferred from the molecular binding assay plate in 100 μl of 0.05% NP40/PBS. After a 3-hour incubation period, the supernatant is decanted and scintillation fluid (Microscint 20) added. Captured complexes are then measured on a microplate scintillation and luminescence counter (TopCount NXTTM; Packard).
HLA-DR purification. Fifteen distinct HLA-DR molecules were used in quantitative assays to measure the binding of peptides to solubilized HLA-DR molecules. […] Briefly, columns of inactivated Sepharose CL4B and Protein A Sepharose were used as pre-columns. HLA-DR molecules were captured by passage of lysates over LB3.1 monoclonal antibody (anti-HLA-DRA) columns. Antibody columns were washed with 10 mM Tris-HCL, pH8.0 with 1% (v/v) NP-40, followed by PBS containing 0.4% (w/v) n-octylglucoside.
Briefly, 1-10 nM of radiolabeled peptide was co-incubated for 2 days at either room temperature or 37° C. with 1 μM to 1 nM purified HLA-DR molecules in the presence of a cocktail of protease inhibitors. Assays were performed at various pH conditions, ranging from pH 4 to pH 7. […] After incubation, the percentage of HLA-DR-bound radioactivity is determined by capturing HLA-DR/peptide complexes on Optiplates (Packard Instruments, Meriden, Conn.) coated with the LB3.1 antibody and determining bound counts per minute using the TopCount microscintillation counter (Packard Instruments).

purified HLA DRB1*0405 = target: T2, purified HLA DRB1*0405 (Homo sapiens, UniProt P01903+P01911, A100R/A169T/D86S/F76Y/I96L/K127E/L162R/M171V/N62H/P40V/Q125Y/R42H/S133A/S149N/S66Y/V115G/V209L/W38E); assay: HLA-DR radioligand binding inhibition assay, DRB1*0405; details: read-out: IC50 nM purified HLA DRB1 *0405; purified HLA DRB1*0405
T2 construct: purified from EBV transformed homozygous cell lines or single MHC allele transfected 721.221, C1R, or fibroblast lines; made in house
How it was run: (§1)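 Bound radioactivity is read after 3-hour capture of complexes in 0.05% NP40/PBS on antibody-coated plates. Binding reactions pair 1-10 nM labeled peptide with 1 μM to 1 nM HLA-DR for two days.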

purified HLA DRB1*0101 = target: T3, purified HLA DRB1*0101 (Homo sapiens, UniProt P01903+P01911, A100R/D57E/F55L/F60I/F76Y/I96L/L162R/M171V/P40L/Q125E/R42F/V115G/Y59C); assay: HLA-DR radioligand binding inhibition assay, DRB1*0101; details: read-out: IC50 nM purified HLA DRB1 *0101; purified HLA DRB1*0101
T3 construct: purified from EBV transformed homozygous cell lines or single MHC allele transfected 721.221, C1R, or fibroblast lines; made in house
How it was run: as §1

purified HLA DRB1*1302 = target: T4, purified HLA DRB1*1302 (Homo sapiens, UniProt P01903+P01911, A100E/A169T/K41T/L162R/M171V/P40S/Q125H/Q178H/Q39Y/Q99D/R42S/S66N/T262R/V115G/W38E/Y61H); assay: HLA-DR radioligand binding inhibition assay, DRB1*1302
T4 construct: purified from EBV transformed homozygous cell lines or single MHC allele transfected 721.221, C1R, or fibroblast lines; made in house
How it was run: as §1

[1] = tested on: peptide-specific T cells in PBMC; assay: 10-day interferon-gamma ELIspot with PBMC of breast or ovarian cancer patients and healthy controls; type: cell-based, human; details: for Percent of patients with responses: fraction of breast or ovarian cancer patients with mean T cell values above cutoff (mean + 2 SD of healthy donors)
Source text: Each panel represents a unique peptide and each data point is derived from one individual. The grey box (i.e. cutoff) delineates the region that constitutes the mean and two standard deviations calculated from the normal healthy individuals. The percentages represent the fraction of patients that had mean T cell values above the cutoff. The peptides that are circled are those in which a higher fraction of the patients responded compared to the normal healthy controls. These peptides are considered to be the best vaccine candidates. However, it is clear that the rigidness of this approach could potentially result in many false negatives. […] Despite this, we identified 5 candidates to move forward. The fidelity of this approach is evident from a prior study which has already shown that a HER-2/neu peptide, p884-899, which encompasses the binding motif of p885, is an HLA-DR4 epitope.
Enzyme-linked immunosorbent spot assay. A 10-day ELlspot for detecting low-frequency T cells was used to determine reactivity to the tumor antigen peptides (Table 1) as described (Knutson K L et al. J Clin Onc 2006;24: 4254-61). […] PMA/Ionomycin and the CEF pool were used as positive non-tumor related controls as previously described (Knutson, 2006).
Using predictive algorithms discussed above, candidate HLA-DR1-binding epitopes were identified. […] An interferon-gamma ELIspot assay was used to assess immunity to the indiscriminate binding peptides in 48 patients with either breast or ovarian cancer and 18 healthy controls.
Using an ELlspot assay with a limit of detection of approximately […], patient-derived PBMC were screened for reactivity against all of the HLA-DR binding peptides.

[2] = tested on: 15 different HLA-DR molecules; assay: HLA-DR binding assays, panel of 15 different HLA-DR molecules (breadth of binding); details: number of the 15 HLA-DR molecules bound (binders: 1000 nM or better)
[3] = tested on: short term T cell lines from breast or ovarian cancer patients; assay: IFN-γ ELISpot analysis of short term T cell lines (peptide versus protein fragment; natural processing); type: cell-based, human; details: T cell lines respond to culture peptide and to protein fragment; FIGS. 5 and 6
Source text: IFN-γ ELISpot analysis of short term T cell lines generated against HER-2/neu peptides, p53 (Panel A), p83 (Panel B), p88 (Panel C) and p885 (Panel D). […] Each bar is the mean (s.e.m.) of three replicates.
FIG. 6 is identical to FIG. 5 except that the results were obtained using IGFBP-2 derived helper epitopes.

IC50 (purified HLA DRB1*0901)	IC50 (purified HLA DRB1*0405)	IC50 (purified HLA DRB1*0101)	IC50 (purified HLA DRB1*1302)	Total XRN [2]	SMILES	Percent of patients with responses [1]	patient response rate on exclusion of one healthy individual with a robust response ([1]; recalculated cutoff, FIG. 1)	naturally processed and presented antigen [3]
5780 nM	10500 nM	65 nM	15 nM	–	CC[C@H](C)[C@H](NC(=O)[C@H](CCCCN)NC(=O)[C@@H](NC(=O)[C@H](Cc1c[nH]cn1)NC(=O)[C@H](CC(N)=O)NC(=O)[C@@H]1CCCN1C(=O)[C@H](CO)NC(=O)[C@H](CCCCN)NC(=O)[C@@H](NC(=O)[C@H](CC(C)C)NC(=O)[C@@H](NC(=O)[C@H](CC(N)=O)NC(=O)[C@H](CCCNC(=N)N)NC(=O)[C@H](C)N)C(C)C)C(C)C)C(C)C)C(=O)N[C@H](C(=O)O)[C@@H](C)O	–	–	–
–	–	–	–	10	CC[C@H](C)[C@H](N)C(=O)N[C@@H](CCCCN)C(=O)N[C@@H](Cc1c[nH]c2ccccc12)C(=O)N[C@@H](CCSC)C(=O)N[C@@H](C)C(=O)N[C@@H](CC(C)C)C(=O)N[C@@H](CCC(=O)O)C(=O)N[C@@H](CO)C(=O)N[C@H](C(=O)N[C@@H](CC(C)C)C(=O)N[C@@H](CCCNC(=N)N)C(=O)N[C@@H](CCCNC(=N)N)C(=O)N[C@@H](CCCNC(=N)N)C(=O)N[C@@H](Cc1ccccc1)C(=O)N[C@H](C(=O)O)[C@@H](C)O)[C@@H](C)CC [Peptide 9019.0003]	4%	15%	–
–	–	–	–	12	CC(C)C[C@H](NC(=O)[C@H](CO)NC(=O)[C@H](C)NC(=O)[C@H](CC(N)=O)NC(=O)[C@@H](NC(=O)[C@@H]1CCCN1C(=O)[C@H](CC(C)C)NC(=O)[C@H](Cc1ccc(O)cc1)NC(=O)[C@@H](NC(=O)[C@H](CC(C)C)NC(=O)[C@H](CCC(=O)O)NC(=O)[C@H](CC(C)C)NC(=O)[C@@H](N)CC(N)=O)[C@@H](C)O)[C@@H](C)O)C(=O)N[C@@H](CO)C(=O)N[C@@H](Cc1ccccc1)C(=O)O [Peptide 9019.0030]	15%	–	naturally processed and presented antigens
–	–	–	–	13	CC[C@H](C)[C@H](NC(=O)[C@@H]1CCCN1)C(=O)N[C@@H](CCCCN)C(=O)N[C@@H](Cc1c[nH]c2ccccc12)C(=O)N[C@@H](CCSC)C(=O)N[C@@H](C)C(=O)N[C@@H](CC(C)C)C(=O)N[C@@H](CCC(=O)O)C(=O)N[C@@H](CO)C(=O)N[C@H](C(=O)N[C@@H](CC(C)C)C(=O)N[C@@H](CCCNC(=N)N)C(=O)N[C@@H](CCCNC(=N)N)C(=O)N[C@@H](CCCNC(=N)N)C(=O)N[C@@H](Cc1ccccc1)C(=O)O)[C@@H](C)CC [Peptide 9019.0087]	25%	–	naturally processed and presented antigens
–	–	–	–	10	CC[C@H](C)[C@H](NC(=O)[C@@H](NC(=O)[C@H](CC(C)C)NC(=O)[C@H](CCCCN)NC(=O)[C@H](C)NC(=O)[C@@H](NC(=O)[C@@H](NC(=O)[C@@H]1CCCN1C(=O)[C@@H]1CCCN1C(=O)[C@H](CC(N)=O)NC(=O)[C@H](Cc1c[nH]c2ccccc12)NC(=O)[C@H](Cc1ccccc1)NC(=O)[C@@H](NC(=O)[C@H](CC(C)C)NC(=O)[C@@H](N)CC(C)C)[C@@H](C)O)[C@@H](C)O)[C@@H](C)O)[C@@H](C)O)C(=O)O [Peptide 9019.0105]	17%	–	–
–	–	–	–	9	CC(C)C[C@H](NC(=O)[C@H](CC(N)=O)NC(=O)[C@H](CO)NC(=O)[C@@H](NC(=O)[C@H](Cc1ccccc1)NC(=O)[C@H](CS)NC(=O)[C@H](C)NC(=O)[C@@H](N)Cc1ccc(O)cc1)C(C)C)C(=O)N[C@@H](C)C(=O)N[C@H](C(=O)NCC(=O)N[C@@H](CCCNC(=N)N)C(=O)N[C@@H](CC(N)=O)C(=O)N[C@@H](CC(N)=O)C(=O)N[C@@H](CO)C(=O)O)[C@@H](C)O [Peptide 9019.0141]	25%	–	–

SMILES	IC50 (purified HLA DRB1*0901)	IC50 (purified HLA DRB1*0405)	IC50 (purified HLA DRB1*0101)	IC50 (purified HLA DRB1*1302)	Total XRN [2]	Percent of patients with responses [1]	patient response rate on exclusion of one healthy individual with a robust response ([1]; recalculated cutoff, FIG. 1)	naturally processed and presented antigen [3]
CC[C@H](C)[C@H](NC(=O)[C@H](Cc1c[nH]cn1)NC(=O)[C@H](CC(C)C)NC(=O)[C@H](CO)NC(=O)[C@H](Cc1ccc(O)cc1)NC(=O)[C@H](CC(C)C)NC(=O)[C@H](Cc1c[nH]cn1)NC(=O)[C@H](CCC(=O)O)NC(=O)[C@H](CC(C)C)NC(=O)[C@@H]1CCCN1C(=O)CNC(=O)[C@H](CCCNC(=N)N)NC(=O)[C@@H](N)CCC(=O)O)C(=O)N1CCC[C@H]1C(=O)N[C@@H](CC(N)=O)C(=O)O [Peptide 9019.0190, EROPLEHLYSLHIPN]	–	–	–	–	8	23%	–	naturally processed peptides
